The numbers were not newly measured in patent publication JP2008055197A (priority 2007, dated 2008), which cites them from elsewhere.

As for `O=[N+]([O-])OCC(CO[N+](=O)[O-])O[N+](=O)[O-]` [ニトログリセリン], for the setting “ethyl alcohol, isopropyl alcohol and the like”, the “solubility in ethyl alcohol, isopropyl alcohol and the like” value is listed as “溶解する”. The solubility in water entry (water) is recorded as “不溶”.
